For orientation: EC50 means the midpoint of the concentration-response curve. A high value points to a need for much substance.

From patent publication US10092575B2, “Substituted thiophene- and furan-fused azolopyrimidine-5-(6H)-one compounds” (DART NEUROSCIENCE (CAYMAN) LTD., priority 2012, dated 2018) come the findings set out here.

The first experiment has as its target human PDE1b enzyme (Homo sapiens (Human), UniProt Q01064). In words: PDE1b inhibitory assay (IMAP TR-FRET).
Settings: not given
A general note: TR-FRET usually uses a lanthanide donor and a delayed reading to cut background.
In turn, `COc1ccc(Cn2c(=O)n3ncnc3c3c4c(sc32)CN(CC(C)C)CC4(F)F)cc1` [Example 218, 11,11-Difluoro-9-isobutyl-6-(4-methoxybenzyl)-8,9,10,11-tetrahydropyrido[4′,3′:4,5]thieno[3,2-e][1,2,4]triazolo[1,5-c]pyrimidin-5 (6H)-one] yielded an EC50 of 100 to 1000 nM.
On the same count and under the same terms, the figure for `O=c1n(Cc2ccccc2Cl)c2sccc2c2ncnn12` [Example 1, 6-(2-Chlorobenzyl)thieno[3,2-e][1,2,4]triazolo[1,5-c]pyrimidin-5(6H)-one] is 1000 to 10000 nM; for `O=c1n(Cc2ccc(Cl)cc2)c2sc3c(c2c2ncnn12)CCN(CC(F)(F)F)C3` [Example 107, 6-(4-Chlorobenzyl)-9-(2,2,2-trifluoroethyl)-8,9,10,11-tetrahydropyrido[4′,3′:4,5]thieno[3,2-e][1,2,4]triazolo[1,5-c]pyrimidin-5 (6H)-one] it is 100 to 1000 nM.
On the same count and under the same terms, for `Cc1cc2c(s1)n(Cc1ccc(Cl)cc1)c(=O)n1ncnc21` [Example 15, 6-(4-Chlorobenzyl)-8-methylthieno[3,2-e][1,2,4]triazolo[1,5-c]pyrimidin-5(6H)-one] the value was 100 to 1000 nM; for `COc1ccc(Cn2c(=O)n3ncnc3c3c4c(sc32)CN(C(=O)C2CCNC2)CC4)cc1` (stereo not drawn) [Example 181, 6-(4-Methoxybenzyl)-9-(pyrrolidine-3-carbonyl)-8,9,10,11-tetrahydropyrido[4′,3′:4,5]thieno[3,2-e][1,2,4]triazolo[1,5-c]pyrimidin-5(6H)-one], 100 to 1000 nM; for `CC(C)CCc1cc2c(s1)n(Cc1ccccc1Cl)c(=O)n1ncnc21` [Example 19, 6-(2-Chlorobenzyl)-8-isopentylthieno[3,2-e][1,2,4]triazolo[1,5-c]pyrimidin-5(6H)-one], 1000 to 10000 nM.
The same measure, in the same setting: for `COc1ccc(Cn2c(=O)n3nccc3c3cc(CN4C[C@@H](C)O[C@@H](C)C4)sc32)cc1` [Example 104, 2-(((2S,6R)-2,6-Dimethylmorpholino)methyl)-4-(4-methoxybenzyl)pyrazolo[1,5-c]thieno[3,2-e]pyrimidin-5(4H)-one] the value was 100 to 1000 nM.
The compound `Cc1csc2c1c1ncnn1c(=O)n2Cc1ccccc1Cl` [Example 10, 6-(2-Chlorobenzyl)-9-methylthieno[3,2-e][1,2,4]triazolo[1,5-c]pyrimidin-5(6H)-one] returned an EC50 of 1000 to 10000 nM.
The compound `O=c1n(Cc2ccc(Cl)c(F)c2)c2sc3c(c2c2ncnn12)CCOC3` [Example 93, 6-(4-Chloro-3-fluorobenzyl)-6,8,10,11-tetrahydro-5H-pyrano[4′,3′:4,5]thieno[3,2-e][1,2,4]triazolo[1,5-c]pyrimidin-5-one] yielded a concentration for a half-maximal effect (EC50) of 100 to 1000 nM.
On to `COc1ccc(Cn2c(=O)n3ncnc3c3cc(CN4CCC(Oc5ccncc5)CC4)sc32)cc1` [Example 185, 6-(4-Methoxybenzyl)-8-((4-(pyridin-4-yloxy)piperidin-1-yl)methyl)thieno[3,2-e][1,2,4]triazolo[1,5-c]pyrimidin-5(6H)-one], for which the EC50 fell in the range of 100 to 1000 nM.
`O=c1n(Cc2cccc(Cl)c2)c2sc(Cc3ccccc3)cc2c2ncnn12` [Example 9, 8-Benzyl-6-(3-chlorobenzyl)thieno[3,2-e][1,2,4]triazolo[1,5-c]pyrimidin-5(6H)-one] registered an EC50 of 100 to 1000 nM.
With `CC1(C)Cc2c(sc3c2c2ncnn2c(=O)n3Cc2ccc(Cl)cc2)CO1` [Example 83, 6-(4-Chlorobenzyl)-10,10-dimethyl-6,8,10,11-tetrahydro-5H-pyrano[4′,3′:4,5]thieno[3,2-e][1,2,4]triazolo[1,5-c]pyrimidin-5-one], the half-maximal effective concentration (EC50) fell in the range of 100 to 1000 nM.
Take `O=c1n(Cc2ccc(-c3ccccc3)cc2)c2sc(Cc3ccccc3)cc2c2ncnn12` [Example 18, 6-([1,1′-Biphenyl]-4-ylmethyl)-8-benzylthieno[3,2-e][1,2,4]triazolo[1,5-c]pyrimidin-5(6H)-one]: the EC50 was 1000 to 10000 nM.
The same measure, in the same setting: the figure for `COc1ccc(Cn2c(=O)n3ncnc3c3cc(CN4CC(O)C4)sc32)c(F)c1` [Example 213, 6-(2-Fluoro-4-methoxybenzyl)-8-((3-hydroxyazetidin-1-yl)methyl)thieno[3,2-e][1,2,4]triazolo[1,5-c]pyrimidin-5(6H)-one] is 100 to 1000 nM.

The same experiment, now with this note: negative log of half-maximal molar inhibitory concentration; 200 nM FAM-cAMP; reported as ranges.
Consider `COc1ccc(Cn2c(=O)n3ncnc3c3c4c(sc32)CN(S(C)(=O)=O)CC4)cc1` [Example 162, 6-(4-Methoxybenzyl)-9-(methylsulfonyl)-8,9,10,11-tetrahydropyrido[4′,3′:4,5]thieno[3,2-e][1,2,4]triazolo[1,5-c]pyrimidin-5(6H)-one], for which the “PDE1b (pEC50)” value is listed as above 7.
On the same count and under the same terms, for `COc1ccc(Cn2c(=O)n3ncnc3c3c(C)c(CN4CCOC(C)(C)C4)sc32)cc1` [Example 69, 8-((2,2-Dimethylmorpholino)methyl)-6-(4-methoxybenzyl)-9-methylthieno[3,2-e][1,2,4]triazolo[1,5-c]pyrimidin-5(6H)-one] the value was above 7.
Turning to `COc1ccc(Cn2c(=O)n3nccc3c3cc(CN4C[C@@H](C)O[C@@H](C)C4)sc32)cc1` [Example 104, 2-(((2S,6R)-2,6-Dimethylmorpholino)methyl)-4-(4-methoxybenzyl)pyrazolo[1,5-c]thieno[3,2-e]pyrimidin-5(4H)-one], the “PDE1b (pEC50)” value is above 7.
The same measure, in the same setting: for `COc1ccc(Cn2c(=O)n3ncnc3c3c4c(sc32)CN(CCCS(C)(=O)=O)CC4)cc1` [Example 118, 6-(4-Methoxybenzyl)-9-(3-(methylsulfonyl)propyl)-8,9,10,11-tetrahydropyrido[4′,3′:4,5]thieno[3,2-e][1,2,4]triazolo[1,5-c]pyrimidin-5 (6H)-one] the value was above 7; for `COc1ccc(Cn2c(=O)n3ncnc3c3c4c(sc32)CN(Cc2ncccn2)CC4)c(F)c1` [Example 137, 6-(2-Fluoro-4-methoxybenzyl)-9-(pyrimidin-2-ylmethyl)-8,9,10,11-tetrahydropyrido[4′,3′:4,5]thieno[3,2-e][1,2,4]triazolo[1,5-c]pyrimidin-5 (6H)-one], above 7; for `COc1ccc(Cn2c(=O)n3ncnc3c3c(C)c(CN4CCN5CCC[C@H]5C4)sc32)cc1` [Example 75, (S)-8-((Hexahydropyrrolo[1,2-a]pyrazin-2(1H)-yl)methyl)-6-(4-methoxybenzyl)-9-methylthieno[3,2-e][1,2,4]triazolo[1,5-c]pyrimidin-5(6H)-one], above 7.
The same measure, in the same setting: the figure for `COc1ccc(Cn2c(=O)n3ncnc3c3cc(CN4CCCOCC4)sc32)cc1` [Example 29, 8-((1,4-Oxazepan-4-yl)methyl)-6-(4-methoxybenzyl)thieno[3,2-e][1,2,4]triazolo[1,5-c]pyrimidin-5(6H)-one] is above 7; for `COc1ccc(Cn2c(=O)n3ncnc3c3c4c(sc32)CN(Cc2ccc(F)cc2)CC4)cc1` [Example 127, 9-(4-Fluorobenzyl)-6-(4-methoxybenzyl)-8,9,10,11-tetrahydropyrido[4′,3′:4,5]thieno[3,2-e][1,2,4]triazolo[1,5-c]pyrimidin-5(6H)-one] it is above 7; for `COc1ccc(Cn2c(=O)n3ncnc3c3c4c(sc32)CN(Cc2ncccn2)CC4)cc1` [Example 116, 6-(4-Methoxybenzyl)-9-(pyrimidin-2-ylmethyl)-8,9,10,11-tetrahydropyrido[4′,3′:4,5]thieno[3,2-e][1,2,4]triazolo[1,5-c]pyrimidin-5 (6H)-one] it is above 7.
Still for that read-out and setting: for `COc1ccc(Cn2c(=O)n3ncnc3c3cc(CN4C[C@@H](C)O[C@@H](C)C4)sc32)cc1` [Example 33, 8-(((2S,6R)-2,6-Dimethylmorpholino)methyl)-6-(4-methoxybenzyl)thieno[3,2-e][1,2,4]triazolo[1,5-c]pyrimidin-5(6H)-one] the value was above 7; for `COc1ccc(Cn2c(=O)n3ncnc3c3c(C)c(CNC4CC4)sc32)cc1` [Example 57, 8-((Cyclopropylamino)methyl)-6-(4-methoxybenzyl)-9-methylthieno[3,2-e][1,2,4]triazolo[1,5-c]pyrimidin-5(6H)-one], above 7.
On to `COc1ccc(Cn2c(=O)n3ncnc3c3cc(CN4CCN(c5ccccc5F)CC4)sc32)cc1` [Example 186, 8-((4-(2-Fluorophenyl)piperazin-1-yl)methyl)-6-(4-methoxybenzyl)thieno[3,2-e][1,2,4]triazolo[1,5-c]pyrimidin-5(6H)-one], for which the “PDE1b (pEC50)” value is listed as above 7.
The same measure, in the same setting: for `COc1ccc(Cn2c(=O)n3ncnc3c3cc(CN4CC5CC4CO5)sc32)cc1` (stereo not drawn) [Example 37, 8-(2-Oxa-5-azabicyclo[2.2.1]heptan-5-ylmethyl)-6-(4-methoxybenzyl)thieno[3,2-e][1,2,4]triazolo[1,5-c]pyrimidin-5(6H)-one] the value was above 7.
On the same count and under the same terms, for `Cn1ccnc1CN1CCc2c(sc3c2c2ncnn2c(=O)n3Cc2ccc(Cl)cc2F)C1` [Example 131] the value was above 7; for `COc1ccc(Cn2c(=O)n3ncnc3c3c4c(sc32)CN(C(=O)OC(C)(C)C)CC4)cc1` [Example 80, tert-Butyl 6-(4-methoxybenzyl)-5-oxo-5,6,10,11-tetrahydropyrido[4′,3′:4,5]thieno[3,2-e][1,2,4]triazolo[1,5-c]pyrimidine-9(8H)-carboxylate], above 7.
With `COc1ccc(Cn2c(=O)n3ncnc3c3c4c(sc32)CN(Cc2ccncn2)CC4)cc1` [Example 119, 6-(4-Methoxybenzyl)-9-(pyrimidin-4-ylmethyl)-8,9,10,11-tetrahydropyrido[4′,3′:4,5]thieno[3,2-e][1,2,4]triazolo[1,5-c]pyrimidin-5(6H)-one], the “PDE1b (pEC50)” value was above 7.
On the same count and under the same terms, for `COc1ccc(Cn2c(=O)n3ncnc3c3c4c(sc32)CN(CC(C)(C)C)CC4)cc1` [Example 115, 6-(4-Methoxybenzyl)-9-neopentyl-8,9,10,11-tetrahydropyrido[4′,3′:4,5]thieno[3,2-e][1,2,4]triazolo[1,5-c]pyrimidin-5(6H)-one] the value was above 7; for `COc1ccc(Cn2c(=O)n3ncnc3c3c4c(sc32)CN(CC2COCCO2)CC4)cc1` (stereo not drawn) [Example 125, 9-((1,4-Dioxan-2-yl)methyl)-6-(4-methoxybenzyl)-8,9,10,11-tetrahydropyrido[4′,3′:4,5]thieno[3,2-e][1,2,4]triazolo[1,5-c]pyrimidin-5(6H)-one], above 7; for `COc1ccc(Cn2c(=O)n3ncnc3c3c(C)c(CN(C)CC4CCCO4)sc32)cc1` (stereo not drawn) [Example 54, 6-(4-Methoxybenzyl)-9-methyl-8-((methyl((tetrahydrofuran-2-yl)methyl)amino)methyl)thieno[3,2-e][1,2,4]triazolo[1,5-c]pyrimidin-5(6H)-one], above 7.
